Some test systems named below: OVCAR-4; NCI-H522; BT-549; PC-3; OVCAR-5; U-251; A549; HCT-15; T47D; OVCAR-3; M14; UACC-62; 786-0; KM12; SNB-19; SNB-75; CAKI-1; MCF7; Malme-3M.
Experiment in all cases: growth of human tumour cells (NCI), 48 h

Each structure is given as a SMILES string.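 All cell lines were grown in 96-well plates and treated with compound for 48 hours. The concentration for 50% growth inhibition is given as GI50.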 Active and inactive are the calls of the source. Cut-off read from the data, not from the text of the source: active = GI50 up to about 1.1 µM and inactive = higher.

Results on twelve compounds are retold here after ChEMBL document CHEMBL1201862, “PubChem BioAssay data set” (2004).

In the case of `CCOC(=O)c1cc([N+](=O)[O-])cc([N+](=O)[O-])c1Sc1[nH]cnc2ncnc1-2`, the GI50 in the assay with OVCAR-4 was 1.03 µM (active); in the assay on NCI-H522 it was 1.55 µM (inactive); in the assay with BT-549, 2.24 µM (inactive); in the assay on PC-3, 3.73 µM (inactive); in the assay with OVCAR-5, 9.71 µM (inactive); in the assay with U-251, 8.71 µM (inactive). The GI50 in the assay on A549 is 14.3 µM (inactive); in the assay on HCT-15, 4.33 µM; in the assay with T47D it was 1.2 µM (inactive); in the assay with OVCAR-3, 1.12 µM (active); in the assay on M14 it was 0.869 µM (active); in the assay on UACC-62, 4.5 µM (inactive). In addition, the GI50 with 786-0 is 0.824 µM (active); in the assay on KM12, 5.25 µM (inactive); with SNB-19, 19.5 µM (inactive); in the assay with SNB-75, 10.3 µM (inactive); in the assay on CAKI-1, 1.85 µM (inactive); in the assay with MCF7, 1.61 µM (inactive).

As for `CCOP(=O)(COCCn1ncc(=O)[nH]c1=O)OCC`, the GI50 in the assay on NCI-H522, in the assay on BT-549, in the assay with PC-3, in the assay with OVCAR-5, in the assay with U-251 and with A549 was > 100 µM (inactive) in each case. The GI50 was over 100 µM in the assay on HCT-15; > 100 µM (inactive) in the assay with T47D; > 100 µM (inactive) in the assay on OVCAR-3; > 100 µM (inactive) in the assay on M14; > 100 µM (inactive) with KM12; > 100 µM (inactive) in the assay with SNB-19. Moreover, the GI50 in the assay on Malme-3M, with SNB-75, with CAKI-1 and with MCF7 was > 100 µM (inactive) in each case.

On to `CSc1nc(NC2CCCC2)c2cc[nH]c2n1`, for which the GI50 in the assay on OVCAR-4 is 48.5 µM (inactive); in the assay with NCI-H522 it was 66.8 µM (inactive); in the assay with BT-549, 74.6 µM (inactive); in the assay on PC-3, 43.5 µM (inactive); with U-251 it was 36.4 µM (inactive); in the assay on A549 it was 50.6 µM (inactive). Also, the GI50 is 54.2 µM in the assay with HCT-15; 61.1 µM (inactive) with T47D; 54.1 µM (inactive) in the assay with OVCAR-3; 65 µM (inactive) in the assay with M14; 23.5 µM (inactive) with UACC-62; 95.1 µM (inactive) in the assay with 786-0. Besides, the GI50 in the assay with KM12 was 54.6 µM (inactive); in the assay on SNB-19, 66.7 µM (inactive); in the assay with Malme-3M, > 100 µM (inactive); in the assay with CAKI-1, > 100 µM (inactive); in the assay with MCF7, 57.3 µM (inactive).

As to `C=C(C)C1CC2(C)C(C)CC(OC(=O)/C(C)=C\C)CC2C(OC(=O)/C(C)=C\C)C1O` (stereo not drawn), the GI50 was > 100 µM (inactive) with OVCAR-4; 32.7 µM (inactive) with NCI-H522; 62.1 µM (inactive) with BT-549; 46.6 µM (inactive) in the assay with PC-3; > 100 µM (inactive) with OVCAR-5; 75.5 µM (inactive) in the assay on U-251. Further, the GI50 is 39.5 µM (inactive) with A549; 42 µM in the assay with HCT-15; 43.2 µM (inactive) in the assay on T47D; > 100 µM (inactive) in the assay on M14; 84.5 µM (inactive) with UACC-62; > 100 µM (inactive) in the assay on 786-0. For the same compound, the GI50 with KM12 was 38.6 µM (inactive); with SNB-19, 25.1 µM (inactive); in the assay on Malme-3M, > 100 µM (inactive); in the assay with SNB-75 it was 22 µM (inactive); in the assay with CAKI-1, 80.7 µM (inactive); in the assay with MCF7, 41.2 µM (inactive).

For the compound `NC(=O)NC(=O)Nc1ccc(Br)cc1`, the GI50 in the assay with OVCAR-4 is > 24.3 µM (inactive); with NCI-H522 it was > 25.9 µM (inactive); in the assay with BT-549, > 20 µM (inactive); with PC-3, 23.9 µM (inactive); in the assay on OVCAR-5, > 21.1 µM (inactive); in the assay on U-251, 11.7 µM (inactive). Further, the GI50 was > 16.6 µM (inactive) with A549; 28 µM with HCT-15; 6.03 µM (inactive) in the assay with T47D; 18.5 µM (inactive) in the assay with M14; 2.92 µM (inactive) in the assay with UACC-62; 20.5 µM (inactive) in the assay with 786-0. Moreover, the GI50 with KM12 was 21.8 µM (inactive); with SNB-19, > 11.9 µM (inactive); in the assay with Malme-3M it was > 15.8 µM (inactive); in the assay on SNB-75, 3.19 µM (inactive); in the assay with CAKI-1, > 9.38 µM (inactive); in the assay with MCF7 it was 5.45 µM (inactive).

`CC(C)(C)OC/C=C(/CO)[C@@H]1C=C[C@H](O)C1`: the GI50 with OVCAR-4, in the assay with BT-549, with PC-3, with OVCAR-5, in the assay on U-251 and in the assay on A549 was > 100 µM (inactive) throughout. Moreover, the GI50 with HCT-15 was over 100 µM; with T47D, > 100 µM (inactive); with OVCAR-3, > 100 µM (inactive); in the assay with M14, > 100 µM (inactive); with UACC-62, > 100 µM (inactive); with 786-0, > 100 µM (inactive). Besides, the GI50 with KM12, in the assay on SNB-19, with Malme-3M, with SNB-75, with CAKI-1 and in the assay with MCF7 was > 100 µM (inactive) each time.

Regarding `c1cc(-c2ncc(-c3ccc4c(c3)CCCO4)o2)ccn1`, the GI50 in the assay with OVCAR-4 was 18 µM (inactive); in the assay with NCI-H522, 3.78 µM (inactive); in the assay on BT-549, 13.2 µM (inactive); in the assay on PC-3 it was 11.5 µM (inactive); in the assay on OVCAR-5 it was 42.2 µM (inactive); in the assay on U-251 it was 11.2 µM (inactive). Also, the GI50 in the assay with A549 was 7.41 µM (inactive); in the assay with HCT-15, 6.24 µM; with T47D, 12.5 µM (inactive); with OVCAR-3 it was 11.4 µM (inactive); in the assay on M14 it was 21.6 µM (inactive); in the assay with UACC-62, 15.6 µM (inactive). Besides, the GI50 with 786-0 is 26.6 µM (inactive); in the assay with SNB-19 it was 8.79 µM (inactive); in the assay with Malme-3M, 10.4 µM (inactive); in the assay on SNB-75, 2.08 µM (inactive); with CAKI-1, 20 µM (inactive); with MCF7 it was 12.8 µM (inactive).

Regarding `CC(C)(Cl)C(Br)CCC(C)(Cl)C(Br)CBr` (stereo not drawn), the GI50 with OVCAR-4 is 28.3 µM (inactive); in the assay with NCI-H522 it was 16.3 µM (inactive); in the assay with BT-549 it was 13.3 µM (inactive); in the assay with PC-3, 27.2 µM (inactive); in the assay with OVCAR-5, 18.7 µM (inactive); with U-251 it was 24.1 µM (inactive). Also, the GI50 with A549 is 29.8 µM (inactive); in the assay with HCT-15, 24.6 µM; in the assay with T47D, 30.5 µM (inactive); in the assay with OVCAR-3, 25.1 µM (inactive); in the assay on M14 it was 34.5 µM (inactive); in the assay with UACC-62, 38.2 µM (inactive). In addition, the GI50 with 786-0 was 24.5 µM (inactive); with SNB-19, 39.4 µM (inactive); in the assay with Malme-3M, 22.4 µM (inactive); with SNB-75, 25.1 µM (inactive); in the assay with MCF7 it was 17.6 µM (inactive).

As to `COc1ccc2cc1Oc1ccc(cc1)CC1c3cc(OC)c(cc3CCN1C)Oc1c(OC)c(OC)cc3c1C(C2)N(C)CC3` (stereo not drawn), the GI50 is 10.6 µM (inactive) with OVCAR-4; 9.89 µM (inactive) with NCI-H522; 10.8 µM (inactive) with BT-549; 11.9 µM (inactive) in the assay on PC-3; 34.2 µM (inactive) in the assay on OVCAR-5; 10.2 µM (inactive) in the assay with U-251. Also, the GI50 in the assay on A549 was 17.5 µM (inactive); in the assay on HCT-15, 9.06 µM; with T47D it was 9.93 µM (inactive); in the assay with M14, 4.91 µM (inactive); in the assay on UACC-62 it was 12.8 µM (inactive); in the assay with 786-0 it was 13.1 µM (inactive). Moreover, the GI50 was 12.7 µM (inactive) in the assay on KM12; 12.7 µM (inactive) in the assay on SNB-19; 11.4 µM (inactive) in the assay on Malme-3M; 8.63 µM (inactive) in the assay with SNB-75; 11.2 µM (inactive) in the assay with CAKI-1; 14.6 µM (inactive) with MCF7.

On to `COc1cc(S(=O)(=O)Nc2ccc(-c3csc(N4C(=O)C(C)SC4c4ccccc4O)n3)cc2)ccc1Cl` (stereo not drawn), for which the GI50 in the assay on NCI-H522 was 18.3 µM (inactive); in the assay with BT-549 it was 27 µM (inactive); with PC-3, 29.9 µM (inactive); with OVCAR-5 it was 95.1 µM (inactive); in the assay on A549 it was > 100 µM (inactive); in the assay with HCT-15 it was 36.9 µM. Further, the GI50 is 13.3 µM (inactive) in the assay with T47D; 69.5 µM (inactive) with OVCAR-3; 40.2 µM (inactive) with M14; 31 µM (inactive) with UACC-62; 35.1 µM (inactive) with 786-0; 29.7 µM (inactive) in the assay with KM12. The GI50 was > 100 µM (inactive) in the assay on SNB-19; 17.9 µM (inactive) in the assay on Malme-3M; 28.8 µM (inactive) with SNB-75; 85.9 µM (inactive) in the assay on CAKI-1; 35.2 µM (inactive) in the assay with MCF7.

Regarding `S=C(S)N1CCN(c2ccc(Cl)c(Cl)c2)CC1`, the GI50 is 21.6 µM (inactive) with NCI-H522; 51.3 µM (inactive) with BT-549; 19.6 µM (inactive) in the assay on PC-3; 29.9 µM (inactive) in the assay on OVCAR-5; 26.3 µM (inactive) with U-251; 45.8 µM (inactive) with A549. The GI50 is 34.2 µM in the assay on HCT-15; 16.6 µM (inactive) with T47D; 21.3 µM (inactive) in the assay on OVCAR-3; 19.7 µM (inactive) with M14; 28.1 µM (inactive) with 786-0; 16.3 µM (inactive) in the assay on KM12. Besides, the GI50 in the assay on SNB-19 was 42.5 µM (inactive); with Malme-3M, 24.2 µM (inactive); in the assay on SNB-75, 20.7 µM (inactive); in the assay on CAKI-1 it was 27.5 µM (inactive); in the assay on MCF7, 25.8 µM (inactive).

As to `CC1C(c2ccccc2)O[B-](F)(c2ccccc2)[NH+]1C` (stereo not drawn), the GI50 in the assay on OVCAR-4, with BT-549, in the assay with PC-3, with OVCAR-5, in the assay on U-251 and in the assay on A549 was > 100 µM (inactive) each time. In addition, the GI50 in the assay on HCT-15 was over 100 µM; in the assay with T47D, > 100 µM (inactive); with OVCAR-3, > 100 µM (inactive); with M14, > 100 µM (inactive); with UACC-62, > 100 µM (inactive); with 786-0, > 100 µM (inactive). Further, the GI50 was > 100 µM (inactive) with SNB-19, > 100 µM (inactive) in the assay on Malme-3M, 37.2 µM (inactive) with SNB-75 and > 100 µM (inactive) with MCF7.
